The test system of one data set is CYP3A. Description: CYP induction (CYP3A activity in cryopreserved hepatocytes, P450-Glo CYP3A4 assay). Type of data set: in vitro ADME. The settings on record: % of positive control; inducibility by 10 μmol/L rifampicin defined as 100%; hepatocytes treated 3 days. How it is done: Cryopreserved hepatocytes were thawed in a culture medium (In VitroGRO™ CP Medium, Celsis In Vitro Technologies, U.S.A.), and the resultant was added to BioCoat™ Matrigel®™ Matrix Thin-Layer 96 well (Becton, Dickinson and Company, U.S.A.) at a concentration of 40,000 cells/well. After culturing for 24 hours, the culture medium was removed, and replaced with an incubation medium (In VitroGRO™, HI Medium with Torpedo Antibiotic Mix, Celsis In Vitro Technologies, U.S.A.). Cells were cultured for an additional 3 days. The medium was removed on day 4, and the remained cells were treated in the induction medium containing a test compound for 3 days in the presence or absence of 10 μmol/L rifampicin. The induction medium was replaced every day. The test compound addition wells in the presence of 10 μmol/L rifampicin were used to evaluate the inhibitory effect of the test compound on the inducibility of the CYP3A activity by rifampicin. The CYP3A activity was evaluated by measuring luciferin generating amount after the addition of 2 μmol/L luciferin-IPA using IPA P450-Glo™ CYP3A4 assay systems (Promega Corporation, U.S.A.). All cultures were carried out under a humidified environment at 37° C., 5% CO2. The inducibility by rifampicin was defines as 100%, and the inducibility of the test compound (% of positive control) was calculated from the following equation: [(luciferin fluorescence intensity in the absence of rifampicin and the presence of test compound)−(luciferin fluorescence intensity in the absence of rifampicin and test compound)/(luciferin fluorescence intensity in the presence of rifampicin and the absence of test compound)−(Luciferin fluorescence intensity in the absence of rifampicin and test compound)]×100.

The target of another data set is T1, human CaSR (Homo sapiens, UniProt P41180).
T1 construct: expressed in transfected cells; host or cells: CHO cells
T1 sequence (P41180 20-1078): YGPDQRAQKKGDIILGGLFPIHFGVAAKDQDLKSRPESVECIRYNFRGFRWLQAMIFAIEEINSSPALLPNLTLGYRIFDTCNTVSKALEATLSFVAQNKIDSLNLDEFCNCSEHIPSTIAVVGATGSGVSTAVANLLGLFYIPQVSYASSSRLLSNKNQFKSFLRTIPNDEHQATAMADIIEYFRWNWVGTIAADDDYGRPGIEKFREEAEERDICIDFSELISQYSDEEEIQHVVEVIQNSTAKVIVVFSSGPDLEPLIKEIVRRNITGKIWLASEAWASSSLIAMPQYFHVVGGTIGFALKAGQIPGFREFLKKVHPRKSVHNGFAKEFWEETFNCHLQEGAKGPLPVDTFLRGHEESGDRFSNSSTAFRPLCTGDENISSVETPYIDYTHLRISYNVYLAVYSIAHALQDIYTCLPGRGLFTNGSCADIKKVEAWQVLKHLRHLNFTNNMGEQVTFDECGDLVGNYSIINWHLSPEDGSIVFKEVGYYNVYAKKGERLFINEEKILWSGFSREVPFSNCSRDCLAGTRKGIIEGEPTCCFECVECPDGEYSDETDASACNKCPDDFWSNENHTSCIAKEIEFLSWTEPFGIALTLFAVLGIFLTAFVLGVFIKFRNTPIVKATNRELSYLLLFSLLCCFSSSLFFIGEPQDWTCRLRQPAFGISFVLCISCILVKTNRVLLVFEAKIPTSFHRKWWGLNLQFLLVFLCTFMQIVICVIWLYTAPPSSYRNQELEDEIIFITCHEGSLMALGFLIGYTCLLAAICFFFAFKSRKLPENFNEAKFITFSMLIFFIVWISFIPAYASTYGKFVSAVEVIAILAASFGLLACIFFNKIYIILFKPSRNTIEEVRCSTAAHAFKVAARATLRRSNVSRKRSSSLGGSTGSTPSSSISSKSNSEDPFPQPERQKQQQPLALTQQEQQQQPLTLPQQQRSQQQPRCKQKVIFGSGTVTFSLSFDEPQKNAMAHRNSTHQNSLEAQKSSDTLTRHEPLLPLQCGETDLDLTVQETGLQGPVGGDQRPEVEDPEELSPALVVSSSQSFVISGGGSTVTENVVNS
The data set is described as follows: Human CaSR antagonist activity (NFAT-Luciferase reporter in CHO cells). Type of data set: cell-based. The settings on record: CHO, CaCl2 final 1.3 mM, 100% = reference antagonist at 10 μM, read-out: Inhibition rate (%) at 3.3 μM. How it is done:
CaSR antagonist activity measurement was performed using Bright-Glo Luciferase assay system (Promega Corporation). CHO cells in which human CaSR and NFAT-Luciferase reporter gene were forcibly expressed were suspended in MEM alpha (Wako Pure Chemical Industries, Ltd.) containing 10% dialyzed serum (HyClone). The cells in suspension was seeded in 384-well white plate (Corning) at 10,000/20 μL/well, and cultured in an incubator of 37° C., 5% CO2 for one day. A diluent of Test compound was prepared with assay buffer (MEM alpha containing 10 mM HEPES (Life Technologies) and 10% dialysis serum). The diluent was added to the plate at 5 μL/well and allowed to stand at 37° C. for 10 minutes. Further, a diluent of 7.8 mM CaCl2 prepared with assay buffer (final concentration 1.3 mM) was added at 5 μl/well and allowed to stand in an incubator of 37° C., 5% CO2 for 2 hours. Bright-Glo reagents (Promega Corporation) were added at 10 μL/well, and the obtained mixture was stirred for 5 minutes, and then luminescence intensity was measured using Multi-label reader Envision (PerkinElmer, Inc.). The activity (%) of the test compound was calculated with the definitions in which the luminescence intensity when DMSO is added in place of the test compound is defined as 0% inhibition; and the luminescence intensity when (5R)—N-(1-ethyl-1-(4-ethylphenyl)propyl)-2,7,7-trimethyl-5-phenyl-4,5,6,7-tetrahydropyrazolo[1,5-a] Pyrimidine-3-carboxamide at final concentration of 10 μM is added is defined as 100% inhibition.

Another data set has as its system CSQ-Tg mice. The data set is described as follows: Heart weight lowering effect in heart failure animal model. To be noted: mean ± standard deviation; for Heart weight / Right ventricle weight: ** p < 0.025 Williams' test. It is filed as in vivo. How it is done: In this Test Example, the heart weight lowering effect of the compound of Example 1 (referred to herein as “Example 1”) was evaluated using CSQ-Tg mice as animal model for heart failure.
The Example 1 was suspended in 0.5% methylcellulose aqueous solution (hereinafter, in Test Examples, sometimes referred to as “vehicle”) (10 mL/kg). The obtained suspension was orally administered to 5-week old female CSQ-Tg mice developing heart failure at a dose of 30 mg/kg bodyweight/day (n=7) or 90 mg/kg bodyweight/day (n=9) once daily (QD) for 21 days. For a negative control (vehicle administration group), 0.5% methylcellulose aqueous solution (n=7) was administered. Then, weights of the hearts were measured. The measurement of the weights was carried out by fractionating each of the hearts into four: left ventricle, right ventricle, left atrium, and right atrium. The sum of the weights of the four fractions was defined as the heart weight.

Where [1] appears, read: 30 mg/kg bodyweight/day oral QD 21 days.
The mark [2] stands for this setting: 90 mg/kg bodyweight/day oral QD 21 days.

This note sets out measurements from US12202832B2, “Heterocyclic compounds having a calcium-sensing receptor antagonistic activity” (TAKEDA PHARMACEUTICAL COMPANY LIMITED, priority 2017, dated 2025).

The term inhibition denotes the relative decrease from the control value, in per cent. `CCc1ccc([C@@](CC)(NC(=O)c2c(C)nn3c2N[C@@H](c2ccccc2)CC3(C)C)C(=O)N[C@@H](C)C(N)=O)cc1` [Example 1, (5R)-N-((2R)-1-(((2S)-1-Amino-1-oxopropan-2-yl)amino)-2-(4-ethylphenyl)-1-oxobutan-2-yl)-2,7,7-trimethyl-5-phenyl-4,5,6,7-tetrahydropyrazolo[1,5-a]pyrimidine-3-carboxamide] came in with an Inducibility in the data set on CYP3A of 15.3%. Also, the inhibition at 3.3 µM on human CaSR was 103%. Besides, in the data set on CSQ-Tg mice (setting [1]), the Left atrium weight is 8.1 ± 3.8 mg, the Left ventricle weight was found to be 147.4 ± 12.0 mg, the Right atrium weight is 5.5 ± 2.6 mg and the Heart weight was 202.8 ± 14.1** mg. For the same compound, the Right ventricle weight with CSQ-Tg mice (setting [1]) is 41.8 ± 6.0** mg. For the same compound, in the data set with CSQ-Tg mice (setting [2]), the Left atrium weight was determined as 9.1 ± 5.1 mg, the Left ventricle weight came out at 147.0 ± 8.6 mg, the Right atrium weight was 5.1 ± 2.2 mg and the Heart weight is given as 202.5 ± 19.1** mg. Besides, the Right ventricle weight in the data set on CSQ-Tg mice (setting [2]) is on record as 41.3 ± 7.6** mg.
